According to patent publication US11078193B2 (priority 2014, dated 2021):

Legend:
HBV = assay: anti HBV activity, HepG2.117 inducibly HBV producing cell line (Tet-off), intracellular HBV DNA by realtime PCR; type: cell-based; settings: Hepatitis B virus, 72 h, HepG2.117 cells, 3 days of treatment
[1] = Cytotoxicity, HepG2 cells, Resazurin assay; type: cell-based; settings: human

| Compound | EC50 (HBV) [nM] | CC50 at 4 days [1] [nM] |
| --- | --- | --- |
| Cn1cc(S(=O)(=O)N[C@H]2CCOC2)c(Cl)c1C(=O)Nc1ccnc(Cl)c1 [Compound 91, 3-chloro-N-(2-chloro-4-pyridyl)-1-methyl-4-[[(3S)-tetrahydrofuran-3-yl]sulfamoyl]pyrrole-2-carboxamide] | 200 | > 25000 |
| Cn1cc(S(=O)(=O)NC2(CO)COC2)c(Cl)c1C(=O)Nc1ccnc(Cl)c1 [Compound 92] | 440 | > 25000 |
| Cn1cc(S(=O)(=O)N[C@H]2C[C@@H](O)C2)c(Cl)c1C(=O)Nc1ccnc(Cl)c1 [Compound 93, 3-chloro-N-(2-chloro-4-pyridyl)-4-[(3-hydroxycyclobutyl)sulfamoyl]-1-methyl-pyrrole-2-carboxamide] | 330 | > 25000 |
| C[C@@H](NS(=O)(=O)c1cn(C)c(C(=O)Nc2ccnc(Cl)c2)c1Cl)C(C)(F)F [Compound 94, 3-chloro-N-(2-chloro-4-pyridyl)-4-[[(1R)-2,2-difluoro-1-methyl-propyl]sulfamoyl]-1-methyl-pyrrole-2-carboxamide] | 30 | > 25000 |
| C[C@@H](NS(=O)(=O)c1cc(C(=O)Nc2ccnc(C#N)c2)n(C)c1)C(C)(F)F [Compound 101, N-(2-cyano-4-pyridyl)-4-[[(1R)-2,2-difluoro-1-methyl-propyl]sulfamoyl]-1-methyl-pyrrole-2-carboxamide] | 430 | > 25000 |
| C[C@@H](NS(=O)(=O)c1cc(C(=O)Nc2ccnc(F)c2)n(C)c1)C(C)(F)F [Compound 102, 4-[[(1R)-2,2-difluoro-1-methyl-propyl]sulfamoyl]-N-(2-fluoro-4-pyridyl)-1-methyl-pyrrole-2-carboxamide] | 180 | > 25000 |
| C[C@@H](NS(=O)(=O)c1cc(C(=O)Nc2ccnc(Cl)c2)n(C)c1)C(C)(F)F [Compound 103, N-(2-chloro-4-pyridyl)-4-[[(1R)-2,2-difluoro-1-methyl-propyl]sulfamoyl]-1-methyl-pyrrole-2-carboxamide] | 140 | > 25000 |
| C[C@@H](NS(=O)(=O)c1cn(C)c(C(=O)Nc2ccnc(Cl)c2F)c1Cl)C(C)(F)F [Compound 107, 3-chloro-N-(2-chloro-3-fluoro-4-pyridyl)-4-[[(1R)-2,2-difluoro-1-methyl-propyl]sulfamoyl]-1-methyl-pyrrole-2-carboxamide] | 20 | > 25000 |
| Cn1cc(S(=O)(=O)NC2(C(F)(F)F)CCC2)c(Cl)c1C(=O)Nc1cc(F)nc(F)c1 [Compound 109, 3-chloro-N-(2,6-difluoro-4-pyridyl)-1-methyl-4-[[1-(trifluoromethyl)cyclobutyl]sulfamoyl]pyrrole-2-carboxamide] | 10 | > 25000 |
| Cn1cc(S(=O)(=O)NC2(C(F)(F)F)CCC2)c(Cl)c1C(=O)Nc1ccnc(Br)c1 [Compound 110, N-(2-bromo-4-pyridyl)-3-chloro-1-methyl-4-[[1-(trifluoromethyl)cyclobutyl]sulfamoyl]pyrrole-2-carboxamide] | 20 | > 25000 |
| Cn1cc(S(=O)(=O)NC2(C(F)(F)F)CCC2)c(Cl)c1C(=O)Nc1ccnc(F)c1 [Compound 111, 3-chloro-N-(2-fluoro-4-pyridyl)-1-methyl-4-[[1-(trifluoromethyl)cyclobutyl]sulfamoyl]pyrrole-2-carboxamide] | 30 | > 25000 |
| CC[C@@H](NS(=O)(=O)c1cn(C)c(C(=O)Nc2ccnc(Cl)c2F)c1Cl)C(F)(F)F [Compound 112, 3-chloro-N-(2-chloro-3-fluoro-4-pyridyl)-1-methyl-[[(1R)-1-(trifluoromethyl)propyl]sulfamoyl]pyrrole-2-carboxamide] | 20 | > 25000 |
| Cn1cc(S(=O)(=O)NC2(C)CC(F)(F)C2)c(Cl)c1C(=O)Nc1ccnc(Cl)c1F [Compound 114, 3-chloro-N-(2-chloro-3-fluoro-4-pyridyl)-4-[(3,3-difluoro-1-methyl-cyclobutyl)sulfamoyl]-1-methyl-pyrrole-2-carboxamide] | 10 | > 25000 |
| Cn1cc(S(=O)(=O)NC2(C)CC(F)(F)C2)c(F)c1C(=O)Nc1ccnc(Br)c1 [Compound 117, N-(2-bromo-4-pyridyl)-4-[(3,3-difluoro-1-methyl-cyclobutyl)sulfamoyl]-3-fluoro-1-methyl-pyrrole-2-carboxamide] | 10 | > 25000 |
| Cn1cc(S(=O)(=O)NC2(C(F)(F)F)CCC2)c(F)c1C(=O)Nc1ccnc(C(F)F)c1 [Compound 119, N-[2-(difluoromethyl)-4-pyridyl]-3-fluoro-1-methyl-4-[[1-(trifluoromethyl)cyclobutyl]sulfamoyl]pyrrole-2-carboxamide] | 5 | > 25000 |
| Cn1cc(S(=O)(=O)NC2(C(F)(F)F)CCC2)c(F)c1C(=O)Nc1ccnc(Cl)c1F [Compound 120, N-(2-chloro-3-fluoro-4-pyridyl)-3-fluoro-1-methyl-4-[[1-(trifluoromethyl)cyclobutyl]sulfamoyl]pyrrole-2-carboxamide] | 5 | > 25000 |

| Compound | EC50 (HBV) [nM] | CC50 at 4 days [1] [nM] |
| --- | --- | --- |
| Cn1cc(S(=O)(=O)NC2(C(F)(F)F)CCC2)c(F)c1C(=O)Nc1cc(Cl)nc(C#N)c1 [Compound 121, N-(2-chloro-6-cyano-4-pyridyl)-3-fluoro-1-methyl-4-[[1-(trifluoromethyl)cyclobutyl]sulfamoyl]pyrrole-2-carboxamide] | 40 | > 25000 |
| Cn1cc(S(=O)(=O)NC2(C(F)(F)F)CCC2)c(F)c1C(=O)Nc1ccnc(Cl)c1 [Compound 122, N-(2-chloro-4-pyridyl)-3-fluoro-1-methyl-4-[[1-(trifluoromethyl)cyclobutyl]sulfamoyl]pyrrole-2-carboxamide] | 10 | > 25000 |
| Cn1cc(S(=O)(=O)NC2(C(F)(F)F)CCC2)c(F)c1C(=O)Nc1ccnc(C#N)c1 [Compound 123, N-(2-cyano-4-pyridyl)-3-fluoro-1-methyl-4-[[1-(trifluoromethyl)cyclobutyl]sulfamoyl]pyrrole-2-carboxamide] | 10 | > 25000 |
| Cn1cc(S(=O)(=O)NC2CCC2(F)F)c(F)c1C(=O)Nc1ccnc(C(F)F)c1 (centres unmarked) [Compound 127, 4-[(2,2-difluorocyclobutyl)sulfamoyl]-N-[2-(difluoromethyl)-4-pyridyl]-3-fluoro-1-methyl-pyrrole-2-carboxamide] | 50 | > 25000 |
| Cn1cc(S(=O)(=O)NC2(CF)CCC2)c(F)c1C(=O)Nc1ccnc(C(F)F)c1 [Compound 128, N-[2-(difluoromethyl)-4-pyridyl]-3-fluoro-4-[[1-(fluoromethyl)cyclobutyl]sulfamoyl]-1-methyl-pyrrole-2-carboxamide] | 40 | > 25000 |
| Cc1cc(NC(=O)c2c(F)c(S(=O)(=O)NC3(C)CC(F)(F)C3)cn2C)cc(Cl)n1 [Compound 130, N-(2-chloro-6-methyl-4-pyridyl)-4-[(3,3-difluoro-1-methyl-cyclobutyl)sulfamoyl]-3-fluoro-1-methyl-pyrrole-2-carboxamide] | 60 | > 25000 |
| Cn1cc(S(=O)(=O)NC2(C)CC(F)(F)C2)c(F)c1C(=O)Nc1ccnc(Br)c1F [Compound 131, N-(2-bromo-3-fluoro-4-pyridyl)-4-[(3,3-difluoro-1-methyl-cyclobutyl)sulfamoyl]-3-fluoro-1-methyl-pyrrole-2-carboxamide] | 20 | > 25000 |
| Cn1cc(S(=O)(=O)NC2(C)CC(F)(F)C2)c(F)c1C(=O)Nc1ccnc(F)c1 [Compound 133, 4-[(3,3-difluoro-1-methyl-cyclobutyl)sulfamoyl]-3-fluoro-N-(2-fluoro-4-pyridyl)-1-methyl-pyrrole-2-carboxamide] | 50 | > 25000 |
| Cn1cc(S(=O)(=O)NC2(C)CC(F)(F)C2)c(F)c1C(=O)Nc1cc(Br)nc(Br)c1 [Compound 135, N-(2,6-dibromo-4-pyridyl)-4-[(3,3-difluoro-1-methyl-cyclobutyl)sulfamoyl]-3-fluoro-1-methyl-pyrrole-2-carboxamide] | 180 | 13000 |
| C[C@@H](NS(=O)(=O)c1cn(C)c(C(=O)Nc2ccnc(F)c2F)c1Cl)C(F)(F)F [Compound 138, 3-chloro-N-(2,3-difluoro-4-pyridyl)-1-methyl-4-[[(1R)-2,2,2-trifluoro-1-methyl-ethyl]sulfamoyl]pyrrole-2-carboxamide] | 90 | > 25000 |
| C[C@@H](NS(=O)(=O)c1cn(C)c(C(=O)Nc2cc(F)ncc2F)c1Cl)C(F)(F)F [Compound 140, 3-chloro-N-(2,5-difluoro-4-pyridyl)-1-methyl-4-[[(1R)-2,2,2-trifluoro-1-methyl-ethyl]sulfamoyl]pyrrole-2-carboxamide] | 200 | > 25000 |
| Cc1cc(NC(=O)c2c(Cl)c(S(=O)(=O)N[C@H](C)C(F)(F)F)cn2C)cc(Cl)n1 [Compound 141, 3-chloro-N-(2-chloro-6-methyl-4-pyridyl)-1-methyl-4-[[(1R)-2,2,2-trifluoro-1-methyl-ethyl]sulfamoyl]pyrrole-2-carboxamide] | 40 | > 25000 |
| C[C@@H](NS(=O)(=O)c1cn(C)c(C(=O)Nc2ccnc(C(F)F)c2F)c1Cl)C(F)(F)F [Compound 142, 3-chloro-N-[2-(difluoromethyl)-3-fluoro-4-pyridyl]-1-methyl-4-[[(1R)-2,2,2-trifluoro-1-methyl-ethyl]sulfamoyl]pyrrole-2-carboxamide] | 20 | > 25000 |
| Cc1cc(NC(=O)c2c(Cl)c(S(=O)(=O)N[C@H](C)C(F)(F)F)cn2C)cc(C)n1 [Compound 144, 3-chloro-N-(2,6-dimethyl-4-pyridyl)-1-methyl-4-[[(1R)-2,2,2-trifluoro-1-methyl-ethyl]sulfamoyl]pyrrole-2-carboxamide] | 300 | > 25000 |
| C[C@@H](NS(=O)(=O)c1cn(C)c(C(=O)Nc2ccnc(C(F)F)c2F)c1Cl)C(C)(F)F [Compound 147, 3-chloro-N-[2-(difluoromethyl)-3-fluoro-4-pyridyl]-4-[[(1R)-2,2-difluoro-1-methyl-propyl]sulfamoyl]-1-methyl-pyrrole-2-carboxamide] | 20 | > 25000 |
